Test results taken from patent US12605397B2, “Deoxy-cytidine or uridine derivatives for use in cancer therapies” (HEMISPHERIAN AS, priority 2019, dated 2026).

Assays:
[1] = system: HCT-116 cells; experiment: Survival assay (MTT), HCT-116; type: cell-based, human; conditions: Homo sapiens
Procedure: (§1) Cells were incubated with the drugs for 72 hours.

[2] = system: A549 cells; experiment: Survival assay (MTT), A549; type: cell-based, human; conditions: Homo sapiens
Procedure: (§2) Cells were passed between 70 and 90% confluence.
as §1

[3] = system: MIA PaCa-2 cells; experiment: Survival assay (MTT), MIA PaCa-2; type: cell-based, human; conditions: Homo sapiens, MIA PaCa-2
Procedure: as §2, §1

[4] = system: U937 cells; experiment: Survival assay (MTT), U937; type: cell-based, human; conditions: Homo sapiens, U-937
Procedure: as §2, §1

[5] = system: A375 cells; experiment: Survival assay (MTT), A375; type: cell-based, human; conditions: Homo sapiens, A-375
Procedure: as §2, §1

[6] = system: HL-60 cells; experiment: Survival assay (MTT), HL-60; type: cell-based, human; conditions: Homo sapiens
Procedure: as §2, §1

[7] = system: SK-OV-3 cells; experiment: Survival assay (MTT), SK-OV-3; type: cell-based, human; conditions: Homo sapiens
Procedure: as §2, §1

[8] = system: MCF-7 cells; experiment: Survival assay (MTT), MCF-7; type: cell-based, human; conditions: Homo sapiens, MCF7
Procedure: as §2, §1

[9] = system: G26 cells; experiment: Survival assay (MTT), G26; type: cell-based, human; conditions: Homo sapiens, G26, Glioma, Grade IV, 72 hours
Procedure: as §2, §1

[10] = system: G30 cells; experiment: Survival assay (MTT), G30; type: cell-based, human; conditions: Homo sapiens, G30, Glioma, Grade IV, 72 hours
Procedure: as §2, §1

[11] = system: U3017 cells; experiment: Survival assay (MTT), U3017; type: cell-based, human; conditions: Homo sapiens, U3017, Glioma, Grade IV, 72 hours
Procedure: as §2, §1

[12] = system: U3013 cells; experiment: Survival assay (MTT), U3013; type: cell-based, human; conditions: Homo sapiens, U3013, Glioma, Grade IV, 72 hours
Procedure: as §2, §1

[13] = system: CB152 cells; experiment: Survival assay (MTT), CB152; type: cell-based, human; conditions: Homo sapiens, CB152, Glioma, Grade IV, 72 hours
Procedure: as §2, §1

[14] = system: HEK293FT cells; experiment: Survival assay (MTT), HEK293FT; type: cell-based; conditions: Homo sapiens
Procedure: as §2, §1
(§3) The present inventors further investigated the extent to which these compounds kill normal human cells; low cytotoxicity against normal human cells is advantageous property for anti-cancer agents. The cytotoxicity of these compounds in various normal human cell lines was therefore investigated (Table 3). Cells were grown and the survival assay was performed as described above (Materials and Methods).

[15] = system: Arpe19 cells; experiment: Survival assay (MTT), Arpe19; type: cell-based, human; conditions: Homo sapiens
Procedure: as §1, §3

[16] = system: HaCat cells; experiment: Survival assay (MTT), HaCat; type: cell-based, human; conditions: Homo sapiens, Normal, Keratinocytes, 72 hours
Procedure: as §2, §1, §3

[17] = system: MRC5 cells; experiment: Survival assay (MTT), MRC5; type: cell-based, human; conditions: Homo sapiens
Procedure: as §2, §1, §3

[18] = system: SF-188 grade IV glioma cells; experiment: Apoptosis flow cytometry (Annexin V / 7AAD); type: cell-based, human; conditions: SF-188 cells, 100 μM, 72 hours
Procedure: 100,000 cells were seeded in a 6-well plate and incubated with 100 μM of Temozolomide, 2′-Deoxy-5-hydroxymethylcytidine, 5-Formyl-2′-deoxycytidine or DMSO for 72 hours. Detection of apoptotic cells was assessed using Annexin V-7-amino-actinomycin D (7-AAD) Apoptotic Detection Kit (Nordic Biosite AS, Cat. Nr. 640922) according to manufacturer's protocol.
Fluorescence-activated cell sorting analysis was performed on LSR Fortessa (BD Biosciences) and data were analyzed on FlowJo software. All experiments were performed in triplicates.
It was therefore evaluated whether 5-formyl-2′deoxycytidine and 5-hydroxymethyl-2′-deoxycytidine were killing sensitive cells or causing them to be delayed in the cell cycle. SF-188 grade IV glioma cells were treated either with DMSO, temozolomide, 5-formyl-2′-deoxycytidine, or 5-hydroxymethyl-2′-deoxycytidine at the indicated concentration. […] A majority of SF-188 cells treated with 5-formyl-2′-deoxycytidine or 5-hydroxymethyl-2′-deoxycytidine were dead according to the flow cytometry profile (FIG. 2A).

[19] = system: U87-MG cells; experiment: Survival assay (MTT), U87-MG; conditions: for cytotoxicity to U87-MG cells (cell survival): up to 100 μM; for IC50: U87-MG; for rescue of cytotoxicity by the addition of thymidine: U87-MG cells; for cytotoxic effect in combination with Temozolomide: temozolomide resistant U87-MG cells
Procedure: Cell lines not mentioned above were grown in DMEM (Sigma, Cat.Nr. D6429) supplemented with 10% Fetal Bovine Serum and 100 U/ml penicillin 100 U/ml streptomycin. All cells were maintained in a 5% CO2, humidified, water-jacketed incubator at 37° C. Cells were passed between 70 and 90% confluence.
In a 96-well plate, 4000 cells in 100 μl of corresponding medium were seeded. The following day, drugs, diluted in DMSO, were added in 8 concentrations in triplicate. Drugs were added as a 4-fold dilution series starting from 100 μM. Cells were incubated with the drugs for 72 hours. Cell proliferation was assessed by MTT assay according to the manufacturer's protocol (ATCC, Cat. Nr. 30-1010K). Cell survival was normalized to the survival of cells treated with DMSO only. Experiment was performed three times, data represent mean of nine wells±SEM.
In a 96-well plate, 4000 cells in 100 μl of corresponding medium were seeded. The following day, drugs, diluted in DMSO, were added in triplicate at a concentration of 100, 25, 6.25, 1.56, 0.39, 0.1, 0.02, or 0.006 ┘M. Cells were incubated with the drugs for 72 hours. Cell proliferation was assessed by MTT assay according to the manufacturer's protocol (ATCC, Cat. Nr. 30-1010K). Cell survival was normalized to the survival of cells treated with DMSO only. Experiment was performed three times, data represent mean of nine wells±SEM.

[20] = HCT-116, 72 h, HCT-116, Colon Carcinoma, 72 hours, MTT
[21] = HCT-116, HCT-116, Tables 6 and 7, unit inferred
[22] = A549, 72 h, A549, Lung Carcinoma, 72 hours, MTT
[23] = A549, A549, Tables 6 and 7, unit inferred
[24] = MIA PaCa-, Pancreatic Carcinoma, 72 hours, MTT
[25] = U937, Tables 6 and 7, unit inferred
[26] = A375, Malignant Melanoma, 72 hours, MTT
[27] = A375, Tables 6 and 7, unit inferred
[28] = HL-60, Acute Promyelocytic Leukemia, 72 hours, MTT
[29] = HL-60, Tables 6 and 7, unit inferred
[30] = SK-OV-3, Ovarian Adenocarcinoma, 72 hours, MTT
[31] = SK-OV-3, Tables 6 and 7, unit inferred
[32] = MCF-7, Epithelial Adenocarcinoma (Breast), 72 hours, MTT
[33] = MCF-7, Tables 6 and 7, unit inferred
[34] = HEK293, Tables 6 and 7, unit inferred
[35] = ARPE-19, 72 h, Arpe19, Normal, Ectoderm, 72 hours, MTT
[36] = ARPE-19, ARPE19, Tables 6 and 7, unit inferred
[37] = MRC5, 72 h, MRC5, Normal, Lung, 72 hours, MTT
[38] = MRC5, MRC5, Tables 6 and 7, unit inferred
[39] = 72 hours, MTT, listed as 5-hydroxymethyl-2′-deoxycytidine
[40] = Homo sapiens, U-87 MG, Tables 6 and 7, unit inferred
[41] = Homo sapiens, U-87 MG, 72 h, Glioma, Grade IV, MTT

Row | SMILES | IC50 [1, 20] [µM] | IC50 [1, 21] [µM] | IC50 [2, 22] [µM] | IC50 [2, 23] [µM] | IC50 [3, 24] [µM] | IC50 ([4]; U937, Lymophoma, 72 hours, MTT) [µM] | IC50 [5, 26] [µM] | IC50 [6, 28] [µM] | IC50 [7, 30] [µM] | IC50 [8, 32] [µM] | IC50 [9] [µM] | IC50 [10] [µM] | IC50 [11] [µM] | IC50 [12] [µM] | IC50 [13] [µM] | IC50 ([14]; 72 h, Normal, Kidney, MTT) [µM] | IC50 [15, 35] [µM] | IC50 [16] [µM] | IC50 [17, 37] [µM] | dead cells by flow cytometry (Annexin V, 7AAD) [18] | further results
1 | Nc1nc(=O)n([C@H]2C[C@H](O)[C@@H](CO)O2)cc1CO [2d5hmC, 5-hydroxymethyl-2′-deoxycytidine] | > 25 | ≥ 25 | > 25 | ≥ 25 | > 25 | > 25 | > 25 | > 25 | > 25 | > 25 | > 100 | 28.1 | 14.1 | > 100 | > 100 | > 25 | > 25 | > 25 | > 25 | dead and not arrested at a cell cycle checkpoint | IC50 ([3]; Tables 6 and 7, unit inferred): ≥ 25 µM; IC50 [4, 25]: ≥ 25 µM; IC50 [5, 27]: ≥ 25 µM; IC50 [6, 29]: ≥ 25 µM; IC50 [7, 31]: ≥ 25 µM; IC50 [8, 33]: ≥ 25 µM; IC50 [14, 34]: ≥ 25 µM; IC50 [15, 36]: ≥ 25 µM; IC50 [17, 38]: ≥ 25 µM; cytotoxicity to U87-MG cells (cell survival) [19, 39]: cytotoxic; cytotoxicity to U87-MG cells (cell survival) ([19]; 72 hours, MTT, listed as d5hmC): markedly more cytotoxic; IC50 [19, 40]: 3.03 µM; rescue of cytotoxicity by the addition of thymidine ([19]; 72 hours, MTT): not rescued; IC50 ([19]; Glioma, Grade IV, 72 hours, MTT): > 0.334 µM; cytotoxic effect in combination with Temozolomide [19, 39]: synergistically; cytotoxic effect in combination with Temozolomide ([19]; 72 hours, MTT, listed as d5hmC): more effective
2 | Cn1nnc2c(C(N)=O)ncn2c1=O [Temozolomide, 4-methyl-5-oxo-2,3,4,6,8-pentazabicyclo[4.3.0]nona-2,7,9-triene-9-carboxamide, reference compound] | > 25 | – | 1.02 | – | > 25 | 13.1 | > 25 | > 25 | > 25 | > 25 | 7.34 | 21.6 | > 100 | > 100 | > 100 | > 25 | > 25 | > 25 | > 25 | slight increase in the amount of dead cells | IC50 [19, 41]: > 25 µM
3 | Nc1nc(=O)n([C@H]2C[C@H](O)[C@@H](CO)O2)cc1C=O [2d5fC, 5-formyl-2′-deoxycytidine] | > 25 | ≥ 25 | > 25 | ≥ 25 | 1.14 | 0.954 | 3.19 | 6.26 | 9.69 | 0.866 | 28.1 | 18 | > 100 | > 100 | > 100 | > 25 | > 25 | 0.102 | > 25 | dead and not arrested at a cell cycle checkpoint | IC50 ([3]; Tables 6 and 7, unit inferred): 1.14 µM; IC50 [4, 25]: 0.954 µM; IC50 [5, 27]: 3.19 µM; IC50 [6, 29]: 6.26 µM; IC50 [7, 31]: 9.69 µM; IC50 [8, 33]: 0.866 µM; IC50 [14, 34]: ≥ 25 µM; IC50 [15, 36]: ≥ 25 µM; IC50 [17, 38]: ≥ 25 µM; cytotoxicity to U87-MG cells (cell survival) ([19]; 72 hours, MTT): markedly more cytotoxic; IC50 [19, 41]: 0.334 µM; IC50 [19, 40]: 0.334 µM; rescue of cytotoxicity by the addition of thymidine ([19]; 72 hours, MTT): not rescued; cytotoxic effect in combination with Temozolomide ([19]; 72 hours, MTT, listed as 5-formyl-2′-deoxycytidine): synergistically; cytotoxic effect in combination with Temozolomide ([19]; 72 hours, MTT, listed as d5fC): more effective
